Data: patent publication US10736968B2, “Cellular signalling inhibitors, their formulations and methods thereof” (INVICTUS ONCOLOGY PVT. LTD., priority 2016, dated 2020)

System: monocytes
Assay: M1/M2 marker expression in IL-4 treated monocytes (FACS)
Type: cell-based
Settings: IL4 24 hours then inhibitor 24 h, CD206, MHC-II, CD86, CD80
Method: FIG. 4. Effect of BLZ-945 and BLN101 (formulated as AK750) in repolarization of the M2-macrophage phenotype formed upon stimulation with IL-4 to the M1-macrophage phenotype. Monocytes were treated with IL-4 for 24 hours, followed by which they were treated with BLZ-945 or BLN101 (formulated as AK750) in basal DMEM media, and cells were collected at different time points. M1 and M2 markers expression on the macrophages and their isotype control was evaluated separately by FACS. Graph represents the representative M1/M2 ratio by taking into account the various individual M1 and M2 markers that were analyzed using FACS. Data are representative of 3 separate experiments.
Activity Studies of Compound of Formula I • Efficacy of BLN101 vs BLZ945 on the ability to inhibit CSF1R in vitro is studied. RAW264.7 cells are treated with BLZ945 (67 nM) or BLN101 (67 nM) for different time points, at the end of which the cells were exposed to CSF1 (10 ng/ml) for 20 min. The cells were then lysed and analyzed for phosphorylated CSF1R levels. […] Efficacy of BLN101 (in formulation AK750) vs BLZ945 on increase in iNOS expression in vitro is studied. […] At different time-points, the cells are harvested and analyzed the population for M1 (MHCII+, CD86+, CD80+) or M2 (CD206+) markers using fluorescence activated cell sorting (FIG. 5d). […]

## CNC(=O)c1cc(Oc2ccc3nc(NC4CCCC[C@H]4OC(=O)CCC(=O)O[C@H]4CC[C@@]5(C)C(=CC[C@H]6[C@@H]7CC[C@H](C(C)CCCC(C)C)[C@@]7(C)CC[C@@H]65)C4)sc3c2)ccn1 (stereo in doubt) [BLN101]
  M1 and M2 macrophage markers: significantly increases the markers associated with M1 macrophages while reducing the M2 macrophage markers
